Measurements: patent publication US9238656B2, “Imidazo[4,5-b]pyridine derivatives as ALK and JAK modulators for the treatment of proliferative disorders” (priority 2012, dated 2016)
pIC50: −log10 of the molar value.

Key:
[1] = target: baculovirus-expressed JAK2 kinase (Homo sapiens, UniProt O60674); experiment: biochemical; conditions: 0.2 μM ATP; read-out: JAK2 Potency
Procedure, shortened: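 Time-resolved fluorescence kinase assay using 15 ng/mL baculovirus-expressed JAK2 on Neutravidin-captured biotinylated 15-mer peptide substrate, reaction 20 min at room temperature. IC50 from percent inhibition versus log concentration, sigmoidal variable-slope fit.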

[2] = target: baculovirus-expressed ALK (Homo sapiens, UniProt Q9UM73); experiment: ALK kinase inhibition, TRF/ELISA; assay type: biochemical; conditions: read-out: ALK Potency
Procedure, shortened: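 Plates were coated with GST-PLC-γ substrate (10 μg/mL) and the reaction was started with 30 ng/mL ALK, running 15 min at 37° C. Phosphotyrosine was detected by time-resolved fluorescence with Eu-labeled PT66 antibody. IC50s came from variable-slope sigmoidal fits of percent inhibition versus log concentration.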

baculovirus-expressed ALK, sequence (Q9UM73 19-1620): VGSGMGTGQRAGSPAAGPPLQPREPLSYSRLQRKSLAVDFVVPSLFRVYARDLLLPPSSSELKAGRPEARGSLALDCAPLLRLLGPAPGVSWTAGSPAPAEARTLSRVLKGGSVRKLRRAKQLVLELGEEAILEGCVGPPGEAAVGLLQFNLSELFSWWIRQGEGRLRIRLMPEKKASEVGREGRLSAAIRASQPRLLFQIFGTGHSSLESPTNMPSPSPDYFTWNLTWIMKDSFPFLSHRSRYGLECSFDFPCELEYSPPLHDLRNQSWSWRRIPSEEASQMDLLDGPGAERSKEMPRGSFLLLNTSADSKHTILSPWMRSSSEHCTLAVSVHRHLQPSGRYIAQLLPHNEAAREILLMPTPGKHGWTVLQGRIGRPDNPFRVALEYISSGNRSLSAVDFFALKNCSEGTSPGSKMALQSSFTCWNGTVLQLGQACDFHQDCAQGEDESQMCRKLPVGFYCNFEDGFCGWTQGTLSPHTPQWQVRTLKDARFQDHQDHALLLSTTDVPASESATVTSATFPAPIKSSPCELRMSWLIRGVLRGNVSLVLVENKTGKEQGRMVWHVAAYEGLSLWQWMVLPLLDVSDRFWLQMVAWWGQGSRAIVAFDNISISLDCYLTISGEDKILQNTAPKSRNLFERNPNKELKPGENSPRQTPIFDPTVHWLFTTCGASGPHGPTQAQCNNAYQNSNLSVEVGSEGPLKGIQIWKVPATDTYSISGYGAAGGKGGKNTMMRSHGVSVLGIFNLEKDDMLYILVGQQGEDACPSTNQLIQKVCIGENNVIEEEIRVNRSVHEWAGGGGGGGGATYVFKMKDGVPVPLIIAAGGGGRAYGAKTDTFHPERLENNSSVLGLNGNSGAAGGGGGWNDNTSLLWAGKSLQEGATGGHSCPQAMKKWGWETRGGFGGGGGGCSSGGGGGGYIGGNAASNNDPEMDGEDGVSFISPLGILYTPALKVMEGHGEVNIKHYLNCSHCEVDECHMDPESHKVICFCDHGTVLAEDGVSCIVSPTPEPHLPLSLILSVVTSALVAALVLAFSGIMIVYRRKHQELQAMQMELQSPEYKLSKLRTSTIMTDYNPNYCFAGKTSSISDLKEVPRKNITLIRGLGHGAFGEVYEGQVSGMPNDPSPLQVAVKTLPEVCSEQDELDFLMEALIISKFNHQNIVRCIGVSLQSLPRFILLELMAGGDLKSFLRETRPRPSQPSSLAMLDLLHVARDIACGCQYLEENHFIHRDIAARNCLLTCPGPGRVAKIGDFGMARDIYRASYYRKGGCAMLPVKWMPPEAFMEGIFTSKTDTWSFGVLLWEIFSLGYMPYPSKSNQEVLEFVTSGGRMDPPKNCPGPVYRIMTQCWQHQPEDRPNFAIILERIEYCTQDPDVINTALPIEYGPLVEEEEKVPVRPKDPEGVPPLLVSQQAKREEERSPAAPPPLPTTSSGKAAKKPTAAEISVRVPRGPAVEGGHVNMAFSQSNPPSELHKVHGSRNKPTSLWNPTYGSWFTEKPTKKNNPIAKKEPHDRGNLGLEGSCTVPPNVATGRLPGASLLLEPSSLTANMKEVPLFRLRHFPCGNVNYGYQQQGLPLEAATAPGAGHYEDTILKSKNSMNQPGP
baculovirus-expressed JAK2 kinase, sequence (O60674 whole entry): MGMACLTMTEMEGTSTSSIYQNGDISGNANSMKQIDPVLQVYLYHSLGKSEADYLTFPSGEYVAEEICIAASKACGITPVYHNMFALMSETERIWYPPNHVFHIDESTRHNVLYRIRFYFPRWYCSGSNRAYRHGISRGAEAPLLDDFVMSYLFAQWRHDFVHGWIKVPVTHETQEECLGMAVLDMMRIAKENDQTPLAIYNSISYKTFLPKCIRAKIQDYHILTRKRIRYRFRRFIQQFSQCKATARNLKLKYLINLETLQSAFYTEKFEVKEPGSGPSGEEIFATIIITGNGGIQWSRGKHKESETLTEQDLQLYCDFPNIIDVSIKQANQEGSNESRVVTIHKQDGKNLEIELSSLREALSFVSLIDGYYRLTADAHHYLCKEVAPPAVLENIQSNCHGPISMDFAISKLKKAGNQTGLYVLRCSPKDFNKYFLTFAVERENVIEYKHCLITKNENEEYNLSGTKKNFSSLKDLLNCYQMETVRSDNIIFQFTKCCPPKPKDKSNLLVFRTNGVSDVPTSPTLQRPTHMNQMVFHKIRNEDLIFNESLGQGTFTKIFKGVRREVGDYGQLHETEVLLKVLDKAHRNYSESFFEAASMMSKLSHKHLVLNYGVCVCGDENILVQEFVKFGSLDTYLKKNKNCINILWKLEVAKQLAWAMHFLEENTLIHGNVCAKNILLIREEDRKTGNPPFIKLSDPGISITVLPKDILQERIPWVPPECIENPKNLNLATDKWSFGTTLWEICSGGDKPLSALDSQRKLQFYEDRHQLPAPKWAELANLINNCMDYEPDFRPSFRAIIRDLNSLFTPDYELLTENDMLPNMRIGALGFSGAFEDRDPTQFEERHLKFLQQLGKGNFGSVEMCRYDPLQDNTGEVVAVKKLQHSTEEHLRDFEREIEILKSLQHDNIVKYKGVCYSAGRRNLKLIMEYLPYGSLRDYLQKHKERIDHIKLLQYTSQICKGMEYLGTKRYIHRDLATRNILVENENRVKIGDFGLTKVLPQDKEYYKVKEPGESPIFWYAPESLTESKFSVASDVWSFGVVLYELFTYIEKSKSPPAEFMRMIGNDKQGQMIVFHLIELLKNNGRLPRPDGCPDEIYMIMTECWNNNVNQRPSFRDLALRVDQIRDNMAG

| SMILES | pIC50 [1] | pIC50 [2] | melting point [°C] |
| --- | --- | --- | --- |
| Cn1cccc1-c1nc2c(N[C@H]3[C@@H](C(N)=O)[C@@H]4C=C[C@H]3C4)c(Br)cnc2[nH]1 [Compound CIX, (1S,2S,3R,4R)-3-[6-Bromo-2-(1-methyl-1H-pyrrol-2-yl)-3H-imidazo[4,5-b]pyridin-7-ylamino]-bicyclo[2.2.1]hept-5-ene-2-carboxylic acid amide] | > 7.00 | > 7.00 | 293 to 295 |
| NC(=O)[C@@H]1[C@H](Nc2c(Br)cnc3[nH]c(-c4cccnc4N4CCCC4)nc23)[C@H]2C=C[C@@H]1C2 [Compound CV, (1S,2S,3R,4R)-3-[6-Bromo-2-(2-pyrrolidin-1-yl-pyridin-3-yl)-3H-imidazo[4,5-b]pyridin-7-ylamino]-bicyclo[2.2.1]hept-5-ene-2-carboxylic acid amide] | 5.00 to 6.00 | 5.00 to 6.00 | 190 |
| COc1cccc(OC)c1-c1nc2c(N[C@H]3[C@@H](C(N)=O)[C@@H]4C=C[C@H]3C4)c(Br)cnc2[nH]1 [Compound CVI, (1S,2S,3R,4R)-3-[6-Bromo-2-(2,6-dimethoxy-phenyl)-3H-imidazo[4,5-b]pyridin-7-ylamino]-bicyclo[2.2.1]hept-5-ene-2-carboxylic acid amide] | 5.00 to 6.00 | 5.00 to 6.00 | 194 to 197 |
| NC(=O)[C@@H]1[C@H](Nc2c(Br)cnc3[nH]c(-c4cncnc4)nc23)[C@H]2C=C[C@@H]1C2 [Compound CVII, (1S,2S,3R,4R)-3-(6-Bromo-2-pyrimidin-5-yl-3H-imidazo[4,5-b]pyridin-7-ylamino)-bicyclo[2.2.1]hept-5-ene-2-carboxylic acid amide] | > 7.00 | 6.00 to 7.00 | > 300 |
| NC(=O)[C@@H]1[C@H](Nc2c(Br)cnc3[nH]c(-c4ccoc4)nc23)[C@H]2C=C[C@@H]1C2 [Compound CVIII, (1S,2S,3R,4R)-3-(6-Bromo-2-furan-3-yl-3H-imidazo[4,5-b]pyridin-7-ylamino)-bicyclo[2.2.1]hept-5-ene-2-carboxylic acid amide] | > 7.00 | 6.00 to 7.00 | 231 to 232 |
| Cc1ccc(-c2nc3c(N[C@H]4[C@@H](C(N)=O)[C@@H]5C=C[C@H]4C5)c(Br)cnc3[nH]2)o1 [Compound CX, (1S,2S,3R,4R)-3-[6-Bromo-2-(5-methyl-furan-2-yl)-3H-imidazo[4,5-b]pyridin-7-ylamino]-bicyclo[2.2.1]hept-5-ene-2-carboxylic acid amide] | > 7.00 | 6.00 to 7.00 | 200 to 201 |
| NC(=O)[C@@H]1[C@H](Nc2c(Br)cnc3[nH]c(-c4ccsc4)nc23)[C@H]2C=C[C@@H]1C2 [Compound CXI, (1S,2S,3R,4R)-3-(6-Bromo-2-thiophen-3-yl-3H-imidazo[4,5-b]pyridin-7-ylamino)-bicyclo[2.2.1]hept-5-ene-2-carboxylic acid amide] | > 7.00 | > 7.00 | 238 to 241 |
| NC(=O)[C@@H]1[C@H](Nc2c(Br)cnc3[nH]c(-c4ccc(N5CCOCC5)nc4)nc23)[C@H]2C=C[C@@H]1C2 [Compound CXII, (1S,2S,3R,4R)-3-[6-Bromo-2-(6-morpholin-4-yl-pyridin-3-yl)-3H-imidazo[4,5-b]pyridin-7-ylamino]-bicyclo[2.2.1]hept-5-ene-2-carboxylic acid amide] | > 7.00 | > 7.00 | 288 to 290 |
| CN1CCN(c2ccc(-c3nc4c(N[C@@H]5[C@H]6CC[C@H](C6)[C@@H]5C(N)=O)c(Br)cnc4[nH]3)cc2)CC1 [Compound CXIII, (1R,2S,3R,4S)-3-{6-Bromo-2-[4-(4-methyl-piperazin-1-yl)-phenyl]-3H-imidazo[4,5-b]pyridin-7-ylamino}-bicyclo[2.2.1]heptane-2-carboxylic acid amide] | > 7.00 | > 7.00 | 256 to 258 |
| COC[C@@H](O)CN1CCC(c2ccc(-c3nc4c(N[C@H]5[C@@H](C(N)=O)[C@@H]6C=C[C@H]5C6)c(Cl)cnc4[nH]3)c(OC)c2)CC1 [Compound CXIX, (1S,2S,3R,4R)-3-(6-Chloro-2-{4-[1-((S)-2-hydroxy-3-methoxy-propyl)-piperidin-4-yl]-2-methoxy-phenyl}-3H-imidazo[4,5-b]pyridin-7-ylamino)-bicyclo[2.2.1]hept-5-ene-2-carboxylic acid amide] | > 7.00 | > 7.00 | 189 to 191 |
| NC(=O)[C@@H]1[C@H](Nc2c(Cl)cnc3[nH]c(-c4ccc5c(c4)CCC4(CCNCC4)O5)nc23)[C@H]2C=C[C@@H]1C2 [Compound CXV, (1S,2S,3R,4R)-3-[(6-chloro-2-spiro[chromane-2,4′-piperidine]-6-yl-3H-imidazo[4,5-b]pyridin-7-yl)amino]bicyclo[2.2.1]hept-5-ene-2-carboxamide] | > 7.00 | > 7.00 | > 250 |
| COc1cc(C2CCN(C)CC2)ccc1-c1nc2c(N[C@H]3[C@@H](C(N)=O)[C@@H]4C=C[C@H]3C4)c(Cl)cnc2[nH]1 [Compound CXVII, (1S,2S,3R,4R)-3-{6-Chloro-2-[2-methoxy-4-(1-methyl-piperidin-4-yl)-phenyl]-3H-imidazo[4,5-b]pyridin-7-ylamino}-bicyclo[2.2.1]hept-5-ene-2-carboxylic acid amide] | > 7.00 | > 7.00 | 232 to 235 |
| COc1cc(C2CCN(C[C@@H](O)CO)CC2)ccc1-c1nc2c(N[C@H]3[C@@H](C(N)=O)[C@@H]4C=C[C@H]3C4)c(Cl)cnc2[nH]1 [Compound CXVIII, (1S,2S,3R,4R)-3-(6-Chloro-2-{4-[1-((R)-2,3-dihydroxy-propyl)-piperidin-4-yl]-2-methoxy-phenyl}-3H-imidazo[4,5-b]pyridin-7-ylamino)-bicyclo[2.2.1]hept-5-ene-2-carboxylic acid amide] | > 7.00 | > 7.00 | 209 to 211 |
| COc1cc(C2CCN(C[C@@H](C)O)CC2)ccc1-c1nc2c(N[C@H]3[C@@H](C(N)=O)[C@@H]4C=C[C@H]3C4)c(Cl)cnc2[nH]1 [Compound CXVI] | > 7.00 | > 7.00 | > 120 |
| CN1CCN(Cc2ccc(-c3nc4c(N[C@H]5[C@@H](C(N)=O)[C@@H]6C=C[C@H]5C6)c(Br)cnc4[nH]3)cc2)CC1 [Compound C] | > 7.00 | > 7.00 | 208 to 209 |
| COc1c(CN2CCOCC2)cccc1-c1nc2c(N[C@H]3[C@@H](C(N)=O)[C@@H]4C=C[C@H]3C4)c(Cl)cnc2[nH]1 [Compound LIII, (1S,2S,3R,4R)-3-[6-Chloro-2-(2-methoxy-3-morpholin-4-ylmethyl-phenyl)-3H-imidazo[4,5-b]pyridine-7-ylamino]-bicyclo[2.2.1]hept-5-ene-2-carboxylic acid amide] | > 7.00 | > 7.00 | 133 to 137 |
| COC[C@H](O)CN1CCC(c2ccc(-c3nc4c(N[C@H]5[C@@H](C(N)=O)[C@@H]6C=C[C@H]5C6)c(Cl)cnc4[nH]3)c(OC)c2)CC1 [Compound LIV] | > 7.00 | > 7.00 | 116 to 122 |
| COc1cc(CN2CCN(C(C)=O)CC2)ccc1-c1nc2c(N[C@H]3[C@@H](C(N)=O)[C@@H]4C=C[C@H]3C4)c(Cl)cnc2[nH]1 [Compound LI] | > 7.00 | > 7.00 | 109 to 113 |
| COc1cc(CN2CC[C@H](O)C2)ccc1-c1nc2c(N[C@H]3[C@@H](C(N)=O)[C@@H]4C=C[C@H]3C4)c(Cl)cnc2[nH]1 [Compound LV, (1S,2S,3R,4R)-3-{6-Chloro-2-[4-((S)-3-hydroxy-pyrrolidin-1-ylmethyl)-2-methoxyphenyl]-3H-imidazo[4,5-b]pyridine-7-ylamino}-bicyclo[2.2.1]hept-5-ene-2-carboxylic acid amide] | > 7.00 | > 7.00 | 205 to 208 |
| C=CCc1ccc(-c2nc3c(N[C@H]4[C@@H](C(N)=O)[C@@H]5C=C[C@H]4C5)c(Cl)cnc3[nH]2)c(OC)c1 [Compound LVI, (1S,2S,3R,4R)-3-[2-(4-Allyl-2-methoxy-phenyl)-6-chloro-3H-imidazo[4,5-b]pyridine-7-ylamino]-bicyclo[2.2.1]hept-5-ene-2-carboxylic acid amide] | > 7.00 | > 7.00 | 123 to 126 |
| CN(C)c1ccc(-c2nc3c(N[C@H]4[C@@H](C(N)=O)[C@@H]5C=C[C@H]4C5)c(Br)cnc3[nH]2)cc1 [Compound LXXVI, (1S,2S,3R,4R)-3-[6-Bromo-2-(4-dimethylamino-phenyl)-3H-imidazo[4,5-b]pyridin-7-ylamino]-bicyclo[2.2.1]hept-5-ene-2-carboxylic acid amide] | > 7.00 | > 7.00 | 264 to 265 |
| CN(C)c1cccc(-c2nc3c(N[C@H]4[C@@H](C(N)=O)[C@@H]5C=C[C@H]4C5)c(Br)cnc3[nH]2)c1 [Compound LXXVII, (1S,2S,3R,4R)-3-[6-Bromo-2-(3-dimethylamino-phenyl)-3H-imidazo[4,5-b]pyridin-7-ylamino]-bicyclo[2.2.1]hept-5-ene-2-carboxylic acid amide] | > 7.00 | > 7.00 | 220 to 221 |
| NC(=O)[C@@H]1[C@H](Nc2c(Br)cnc3[nH]c(-c4cccc(CN5CCOCC5)c4)nc23)[C@H]2C=C[C@@H]1C2 [Compound LXXXI, (1S,2S,3R,4R)-3-[6-Bromo-2-(3-morpholin-4-ylmethyl-phenyl)-3H-imidazo[4,5-b]pyridin-7-ylamino]-bicyclo[2.2.1]hept-5-ene-2-carboxylic acid amide] | > 7.00 | > 7.00 | 184 to 185 |
